Results from ChEMBL document CHEMBL3826967, “Small molecule non-peptide inhibitors of botulinum neurotoxin serotype E: Structure-activity relationship and a pharmacophore model” (Bioorg Med Chem, 2016).

What follows are compounds tested against T1, Botulinum neurotoxin type E (Clostridium botulinum) (UniProt Q00496) (assay: Inhibition of endopeptidase activity of Clostridium botulinum BoNT/E light chain using SNAP-25 as substrate at 20 uM after 15 mins by HPLC analysis).
T1 sequence (whole entry): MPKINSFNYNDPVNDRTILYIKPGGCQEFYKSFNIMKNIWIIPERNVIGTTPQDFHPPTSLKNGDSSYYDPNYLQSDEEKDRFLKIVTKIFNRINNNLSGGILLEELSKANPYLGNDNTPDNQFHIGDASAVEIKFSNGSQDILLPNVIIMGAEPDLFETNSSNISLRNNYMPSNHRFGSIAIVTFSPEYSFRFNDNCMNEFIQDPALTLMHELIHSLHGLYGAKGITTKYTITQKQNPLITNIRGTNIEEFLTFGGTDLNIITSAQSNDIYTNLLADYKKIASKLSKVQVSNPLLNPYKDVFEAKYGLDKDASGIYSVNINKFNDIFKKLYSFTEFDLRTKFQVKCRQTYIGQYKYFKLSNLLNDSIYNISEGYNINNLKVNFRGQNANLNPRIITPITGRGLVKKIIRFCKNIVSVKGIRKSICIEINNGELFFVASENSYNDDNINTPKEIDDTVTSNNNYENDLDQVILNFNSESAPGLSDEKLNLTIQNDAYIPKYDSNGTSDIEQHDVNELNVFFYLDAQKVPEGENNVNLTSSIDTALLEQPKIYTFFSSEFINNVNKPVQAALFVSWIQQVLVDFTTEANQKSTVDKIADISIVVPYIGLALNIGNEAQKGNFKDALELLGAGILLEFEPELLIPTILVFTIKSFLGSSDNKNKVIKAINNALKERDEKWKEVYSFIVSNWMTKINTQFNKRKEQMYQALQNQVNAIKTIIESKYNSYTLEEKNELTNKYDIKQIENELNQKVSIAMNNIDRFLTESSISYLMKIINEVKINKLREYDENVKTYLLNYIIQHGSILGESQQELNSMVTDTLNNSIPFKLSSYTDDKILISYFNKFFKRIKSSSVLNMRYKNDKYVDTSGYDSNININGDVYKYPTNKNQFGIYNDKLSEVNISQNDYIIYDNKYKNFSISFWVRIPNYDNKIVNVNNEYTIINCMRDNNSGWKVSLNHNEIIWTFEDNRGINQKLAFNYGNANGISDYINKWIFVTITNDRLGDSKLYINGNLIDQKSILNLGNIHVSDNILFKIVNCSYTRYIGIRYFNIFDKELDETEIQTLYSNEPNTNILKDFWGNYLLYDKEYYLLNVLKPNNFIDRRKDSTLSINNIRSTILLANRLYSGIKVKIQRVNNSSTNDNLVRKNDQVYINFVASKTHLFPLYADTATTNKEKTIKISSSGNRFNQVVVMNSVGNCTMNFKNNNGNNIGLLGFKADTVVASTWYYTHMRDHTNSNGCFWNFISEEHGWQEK

SMILES | inhibition [%]
O=c1c2cc(Cl)ccc2c2ccc(Cl)cc2c(=O)n1-c1ccc2c(c1)Cc1cc(Cl)cc(Cl)c1-2 | 68.9
CC(=O)Nc1cc2c(cc1N)-c1ccccc1C2 | 13.7
O=C(NNC(=S)Nc1ccccc1Cl)c1ccncc1 | 19
O=C(O)c1ccccc1C(=O)c1ccc2oc(O)nc2c1 | 35
Cc1cc2c(cc1C(=O)c1ccccc1C(=O)O)CCCC2 | 24.8
O=C(O)c1ccccc1C(=O)c1ccc(Cl)cc1 | 0
O=C(O)c1cc(Cl)ccc1-c1ccc(Cl)cc1C(=O)Nc1ccc2c(c1)Cc1cc(Cl)cc(Cl)c1-2 | 79.1
O=C(O)c1ccccc1C(=O)CCC(=O)c1ccccc1C(=O)O | 21.2
O=C(O)c1ccccc1-c1ccccc1C(=O)Nc1ccc2c(c1)C(=O)c1ccccc1-2 | 20.2
Cc1cccc(C)c1NC(=S)NNC(=O)c1ccncc1 | 28
O=C(O)c1cc([N+](=O)[O-])ccc1-c1ccc([N+](=O)[O-])cc1C(=O)Nc1ccc2c(c1)Cc1ccccc1-2 | 82
O=C(O)c1ccccc1C(=O)c1ccc(-c2ccccc2)cc1 | 37.8
O=C(O)c1ccccc1C(=O)Nc1cc2c(cc1Br)-c1ccccc1C2=O | 26.2
O=C(O)c1cc(Cl)ccc1-c1ccc(Cl)cc1C(=O)Nc1ccc2c(c1)Cc1ccccc1-2 | 88.3
O=C(Nc1ccc2c(c1)C(=O)c1ccccc1-2)c1ccccc1 | 12.7
COc1ccc2c(c1)Cc1cc(NC(=O)c3ccccc3-c3ccccc3C(=O)O)ccc1-2 | 20.9
O=C1c2ccccc2-c2cc(Br)c(NC(=O)C3CCCCC3C(=O)O)cc21 (centres undefined) | 19.3
O=C(O)c1ccc(C(=O)c2ccccc2C(=O)O)cc1 | 13.7
O=C1c2ccccc2-c2ccc(NC(=O)C3CCCCC3C(=O)O)cc21 (centres undefined) | 18.3

SMILES | inhibition [%]
CNc1ccc(C(=O)c2ccccc2C(=O)O)cc1[N+](=O)[O-] | 14.1
O=C(O)c1ccccc1-c1ccccc1C(=O)Nc1ccc2c(c1)C(O)c1ccccc1-2 (centres undefined) | 20
c1ccc2c(c1)Cc1ccccc1-2 | 17.3
O=C(O)/C=C/C(=O)Nc1ccc2c(c1)Cc1cc([N+](=O)[O-])ccc1-2 | 19.5
O=C(O)c1cccc(F)c1C(=O)c1ccc2ccccc2c1 | 43.9
O=C(O)c1ccccc1C(=O)c1ccc2c(c1)CCC2 | 16.3
O=c1c2cc([N+](=O)[O-])ccc2c2ccc([N+](=O)[O-])cc2c(=O)n1-c1ccc2c(c1)Cc1ccccc1-2 | 24.7
O=c1c2cc(Cl)ccc2c2ccc(Cl)cc2c(=O)n1-c1ccc2c(c1)Cc1ccccc1-2 | 48
O=C(O)c1ccccc1C(=O)c1cc(Cl)cc(Cl)c1O | 19.2
O=C(O)c1ccccc1C(=O)Nc1ccc2c(c1)C(=O)c1ccccc1-2 | 14.8
O=C(O)C1CCCCC1C(=O)Nc1ccc2c(c1)Cc1ccccc1-2 (centres undefined) | 12
O=C(O)c1ccccc1C(=O)c1ccc(O)cc1O | 14.7
O=C(O)c1ccccc1C(=O)c1ccccc1 | 15.9
O=C(O)c1ccccc1-c1ccccc1C(=O)Nc1ccc2c(c1)Cc1cc(F)ccc1-2 | 47.6
O=C(O)c1ccccc1C(=O)c1ccc2c3c(cccc13)CC2 | 11.5
O=C(O)c1ccccc1C(=O)c1ccc2c(c1)Cc1ccccc1-2 | 80.1
O=C(O)c1ccccc1-c1ccccc1C(=O)Nc1ccc2c(c1)Cc1ccccc1-2 | 37.2
O=C(Nc1ccccc1)c1cc2cc3ccccc3cc2cc1O | 70.1

The compounds below were run against T1, Botulinum neurotoxin type E (Clostridium botulinum) (assay: (§1) Inhibition of endopeptidase activity of Clostridium botulinum BoNT/E light chain using SNAP-25 as substrate after 15 mins by HPLC analysis).

SMILES | inhibition
O=C(O)c1cc(Cl)ccc1-c1ccc(Cl)cc1C(=O)Nc1ccc2c(c1)Cc1cc(Cl)cc(Cl)c1-2 | Dose-dependent effect

What follows are compounds tested against T2, Botulinum neurotoxin type E (Clostridium botulinum, UniProt Q00496) (assay: as §1).
T2 sequence (Q00496 whole entry): T1 sequence (whole entry)

SMILES | IC50 [µM]
O=c1c2cc(Cl)ccc2c2ccc(Cl)cc2c(=O)n1-c1ccc2c(c1)Cc1cc(Cl)cc(Cl)c1-2 | 9.8
O=C(O)c1cc(Cl)ccc1-c1ccc(Cl)cc1C(=O)Nc1ccc2c(c1)Cc1cc(Cl)cc(Cl)c1-2 | 3
O=C(O)c1cc([N+](=O)[O-])ccc1-c1ccc([N+](=O)[O-])cc1C(=O)Nc1ccc2c(c1)Cc1ccccc1-2 | 2.7
O=C(O)c1cc(Cl)ccc1-c1ccc(Cl)cc1C(=O)Nc1ccc2c(c1)Cc1ccccc1-2 | 3.2
O=C(Nc1ccccc1)c1cc2cc3ccccc3cc2cc1O | 2.4

The compounds below were run against T2, Botulinum neurotoxin type E (assay: Inhibition of protease activity of Clostridium botulinum BoNT/E light chain using SNAP-25 as substrate after 15 mins by Dixon plot analysis).

SMILES | Ki [nM]
O=C(O)c1ccccc1C(=O)c1ccc2c(c1)Cc1ccccc1-2 | 1290
